According to patent US9156856B2, “Apoptosis-inducing agents for the treatment of cancer and immune and autoimmune diseases” (AbbVie Inc., priority 2009, dated 2015):

Each compound was assayed against Bcl-2 (Homo sapiens (Human), UniProt P10415) (assay: Time Resolved-Fluorescence Resonance Energy Transfer (TR-FRET) Bcl-2 binding assay with F-Bak peptide probe). Conditions: GST-Bcl-2 1 nM, F-Bak peptide probe 100 nM, Tb-anti-GST antibody 1 nM; Ki by Wang's equation.
Procedure: Determination of the utility of compounds having Formula (I) as binders to and inhibitors of anti-apoptotic Bcl-2 proteins was performed using the Time Resolved-Fluorescence Resonance Energy Transfer (TR-FRET) Assay. Tb-anti-GST antibody was purchased from Invitrogen (Catalog No. PV4216).
Representative compounds were serially diluted in dimethyl sulfoxide (DMSO) starting at 50 μM (2× starting concentration; 10% DMSO) and 10 μL were transferred into a 384-well plate. The samples are then mixed on a shaker for 1 minute and incubated for an additional 3 hours at room temperature. For each assay, the probe/antibody and protein/probe/antibody were included on each assay plate as negative and positive controls, respectively. Fluorescence was measured on the ENVISION plate reader (Perkin Elmer) using a 340/35 nm excitation filter and 520/525 (F-Bak peptide) and 495/510 nm (Tb-labeled […] antibody) emission filters Inhibition constants (Ki) are shown in TABLE 2 below and were determined using Wang's equation (Wang Z.-X. An Exact Mathematical Expression For Describing Competitive Binding Of Two Different Ligands To A Protein Molecule. FEBS Lett. 1995, 360:111-4).
The inhibition constant (Ki) is the dissociation constant of an enzyme-inhibitor complex or a protein/small molecule complex, wherein the small molecule is inhibiting binding of one protein to another protein. So a large K, value indicates a low binding affinity and a small Ki value indicates a high binding affinity.
The compounds are therefore expected to have utility in treatment of diseases during which anti-apoptotic Bcl-2 protein is expressed.

Chain of Bcl-2 (P10415 whole entry): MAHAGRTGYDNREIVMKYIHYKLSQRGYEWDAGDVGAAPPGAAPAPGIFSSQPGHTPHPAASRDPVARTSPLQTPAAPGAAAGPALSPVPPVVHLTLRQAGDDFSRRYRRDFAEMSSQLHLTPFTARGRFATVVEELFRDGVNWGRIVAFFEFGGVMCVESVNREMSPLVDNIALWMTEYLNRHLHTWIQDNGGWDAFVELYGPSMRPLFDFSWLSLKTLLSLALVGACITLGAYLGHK

Structure (SMILES) | Ki
COC1(CC2CCCCC2)CCN(c2ccc(C(=O)NS(=O)(=O)c3cc([N+](=O)[O-])c(N[C@H](CCN(C)C)CSc4ccccc4)s3)cc2)CC1 [Example 1, 4-[4-(cyclohexylmethyl)-4-methoxypiperidin-1-yl]-N-{[5-({(1R)-3-(dimethylamino)-1-[(phenylthio)methyl]propyl}amino)-4-nitrothien-2-yl]sulfonyl}benzamide] | 51.4 nM
COC1(Cc2cccc(C)c2)CCN(c2ccc(C(=O)NS(=O)(=O)c3cc([N+](=O)[O-])c(N[C@H](CCN(C)C)CSc4ccccc4)s3)cc2)CC1 [Example 2, N-{[5-({(1R)-3-(dimethylamino)-1-[(phenylthio)methyl]propyl}amino)-4-nitrothien-2-yl]sulfonyl}-4-[4-methoxy-4-(3-methylbenzyl)piperidin-1-yl]benzamide] | 82.9 nM
CN(C)CC[C@H](CSc1ccccc1)Nc1sc(S(=O)(=O)NC(=O)c2ccc(N3CCN(CC=C(c4ccccc4)c4ccccc4)CC3)cc2)cc1[N+](=O)[O-] [Example 3, N-{[5-({(1R)-3-(dimethylamino)-1-[(phenylthio)methyl]propyl}amino)-4-nitrothien-2-yl]sulfonyl}-4-[4-(3,3-diphenylprop-2-enyl)piperazin-1-yl]benzamide] | 51.7 nM
CC(=O)N(CCSc1ccccc1)C1CCN(S(=O)(=O)NC(=O)c2ccc(N3CCN(Cc4ccccc4-c4ccc(Cl)cc4)CC3)cc2)CC1 [Example 5, N-[(4-{acetyl[2-(phenylthio)ethyl]amino}piperidin-1-yl)sulfonyl]-4-{4-[(4′-chloro-1,1′-biphenyl-2-yl)methyl]piperazin-1-yl}benzamide] | 176 nM
CN(CCSc1ccccc1)C1CCN(S(=O)(=O)NC(=O)c2ccc(N3CCN(Cc4ccccc4-c4ccc(Cl)cc4)CC3)cc2)CC1 [Example 6, 4-{4-[(4′-chloro-1,1′-biphenyl-2-yl)methyl]piperazin-1-yl}-N-[(4-{methyl[2-(phenylthio)ethyl]amino}piperidin-1-yl)sulfonyl]benzamide] | 704 nM
CC(C)N(C)CC[C@H](CSc1ccccc1)Nc1sc(S(=O)(=O)NC(=O)c2ccc(N3CCN(Cc4ccccc4-c4ccc(Cl)cc4)CC3)cc2)cc1[N+](=O)[O-] [Example 7, 4-{4-[(4′-chloro-1,1′-biphenyl-2-yl)methyl]piperazin-1-yl}-N-{[5-({(1R)-3-[isopropyl(methyl)amino]-1-[(phenylthio)methyl]propyl}amino)-4-nitrothien-2-yl]sulfonyl}benzamide] | 0.084 nM
CC(C)N(C)CC[C@H](CSc1ccccc1)Nc1sc(S(=O)(=O)NC(=O)c2ccc(N3CCN(CC4=C(c5ccc(Cl)cc5)CCCC4)CC3)cc2)cc1[N+](=O)[O-] [Example 8, 4-(4-{[2-(4-chlorophenyl)cyclohex-1-en-1-yl]methyl}piperazin-1-yl)-N-{[5-({(1R)-3-[isopropyl(methyl)amino]-1-[(phenylthio)methyl]propyl}amino)-4-nitrothien-2-yl]sulfonyl}benzamide] | 0.064 nM
CC(C)N(C)CC[C@H](CSc1ccccc1)Nc1sc(S(=O)(=O)NC(=O)c2ccc(N3CCN(CC4=C(c5ccc(Cl)cc5)CCC(C)(C)C4)CC3)cc2)cc1[N+](=O)[O-] [Example 9, 4-(4-{[2-(4-chlorophenyl)-5,5-dimethylcyclohex-1-en-1-yl]methyl}piperazin-1-yl)-N-{[5-({(1R)-3-[isopropyl(methyl)amino]-1-[(phenylthio)methyl]propyl}amino)-4-nitrothien-2-yl]sulfonyl}benzamide] | 0.307 nM
CC(=O)/N=c1\sc(S(=O)(=O)NC(=O)c2ccc(N3CCN(Cc4ccccc4-c4ccc(Cl)cc4)CC3)cc2)nn1C [Example 10, N-{[(5Z)-5-(acetylimino)-4-methyl-4,5-dihydro-1,3,4-thiadiazol-2-yl]sulfonyl}-4-{4-[(4′-chloro-1,1′-biphenyl-2-yl)methyl]piperazin-1-yl}benzamide] | 743 nM
CC(=O)Nc1nc(C)c(S(=O)(=O)NC(=O)c2ccc(N3CCN(Cc4ccccc4-c4ccc(Cl)cc4)CC3)cc2)s1 [Example 11, N-{[2-(acetylamino)-4-methyl-1,3-thiazol-5-yl]sulfonyl}-4-{4-[(4′-chloro-1,1′-biphenyl-2-yl)methyl]piperazin-1-yl}benzamide] | 177 nM
O=C(NCc1ccc(S(=O)(=O)NC(=O)c2ccc(N3CCN(Cc4ccccc4-c4ccc(Cl)cc4)CC3)cc2)s1)c1ccccc1 [Example 12, N-({5-[(benzoylamino)methyl]thien-2-yl}sulfonyl)-4-{4-[(4′-chloro-1,1′-biphenyl-2-yl)methyl]piperazin-1-yl}benzamide] | 393 nM
O=C(NS(=O)(=O)c1c(Cl)nc2sccn12)c1ccc(N2CCN(Cc3ccccc3-c3ccc(Cl)cc3)CC2)cc1 [Example 13, 4-{4-[(4′-chloro-1,1′-biphenyl-2-yl)methyl]piperazin-1-yl}-N-[(6-chloroimidazo[2,1-b][1,3]thiazol-5-yl)sulfonyl]benzamide] | 388 nM
O=C(NS(=O)(=O)N1CCOCC1)c1ccc(N2CCN(Cc3ccccc3-c3ccc(Cl)cc3)CC2)cc1 [Example 14, 4-{4-[(4′-chloro-1,1′-biphenyl-2-yl)methyl]piperazin-1-yl}-N-(morpholin-4-ylsulfonyl)benzamide] | 409 nM
Cc1nc(C)c(S(=O)(=O)NC(=O)c2ccc(N3CCN(Cc4ccccc4-c4ccc(Cl)cc4)CC3)cc2)s1 [Example 15, 4-{4-[(4′-chloro-1,1′-biphenyl-2-yl)methyl]piperazin-1-yl}-N-[(2,4-dimethyl-1,3-thiazol-5-yl)sulfonyl]benzamide] | 282 nM
O=C(NS(=O)(=O)c1csc(C(F)(F)F)c1-c1ccccc1)c1ccc(N2CCN(Cc3ccccc3-c3ccc(Cl)cc3)CC2)cc1 [Example 16, 4-{4-[(4′-chloro-1,1′-biphenyl-2-yl)methyl]piperazin-1-yl}-N-{[4-phenyl-5-(trifluoromethyl)thien-3-yl]sulfonyl}benzamide] | 37.9 nM
Cc1c(S(=O)(=O)NC(=O)c2ccc(N3CCN(Cc4ccccc4-c4ccc(Cl)cc4)CC3)cc2)sc2ccc(F)cc12 [Example 17, 4-{4-[(4′-chloro-1,1′-biphenyl-2-yl)methyl]piperazin-1-yl}-N-[(5-fluoro-3-methyl-1-benzothien-2-yl)sulfonyl]benzamide] | 356 nM
O=C(NS(=O)(=O)c1nc2ccccc2s1)c1ccc(N2CCN(Cc3ccccc3-c3ccc(Cl)cc3)CC2)cc1 [Example 18, N-(1,3-benzothiazol-2-ylsulfonyl)-4-{4-[(4′-chloro-1,1′-biphenyl-2-yl)methyl]piperazin-1-yl}benzamide] | 129 nM
O=C(NS(=O)(=O)c1cccs1)c1ccc(N2CCN(Cc3ccccc3-c3ccc(Cl)cc3)CC2)cc1 [Example 19, 4-{4-[(4′-chloro-1,1′-biphenyl-2-yl)methyl]piperazin-1-yl}-N-(thien-2-ylsulfonyl)benz amide] | 234 nM
Cc1cc(C)n2nc(S(=O)(=O)NC(=O)c3ccc(N4CCN(Cc5ccccc5-c5ccc(Cl)cc5)CC4)cc3)nc2n1 [Example 20, 4-{4-[(4′-chloro-1,1′-biphenyl-2-yl)methyl]piperazin-1-yl}-N-[(5,7-dimethyl[1,2,4]triazolo[1,5-a]pyrimidin-2-yl)sulfonyl]benzamide] | 48.1 nM
COC(=O)c1ccc(S(=O)(=O)NC(=O)c2ccc(N3CCN(Cc4ccccc4-c4ccc(Cl)cc4)CC3)cc2)n1C [Example 22, methyl 5-{[(4-{4-[(4′-chloro-1,1′-biphenyl-2-yl)methyl]piperazin-1-yl}benzoyl)amino]sulfonyl}-1-methyl-1H-pyrrole-2-carboxylate] | 188 nM
Cc1cc(-c2oncc2S(=O)(=O)NC(=O)c2ccc(N3CCN(Cc4ccccc4-c4ccc(Cl)cc4)CC3)cc2)n(C)n1 [Example 23, 4-{4-[(4′-chloro-1,1′-biphenyl-2-yl)methyl]piperazin-1-yl}-N-{[5-(1,3-dimethyl-1H-pyrazol-5-yl)isoxazol-4-yl]sulfonyl}benzamide] | 447 nM
Cc1nsc(S(=O)(=O)NC(=O)c2ccc(N3CCN(Cc4ccccc4-c4ccc(Cl)cc4)CC3)cc2)c1Cl [Example 24, 4-{4-[(4′-chloro-1,1′-biphenyl-2-yl)methyl]piperazin-1-yl}-N-[(4-chloro-3-methylisothiazol-5-yl)sulfonyl]benzamide] | 342 nM
Cc1c(S(=O)(=O)NC(=O)c2ccc(N3CCN(Cc4ccccc4-c4ccc(Cl)cc4)CC3)cc2)sc2ccc(Br)cc12 [Example 25, N-[(5-bromo-3-methyl-1-benzothien-2-yl)sulfonyl]-4-{4-[(4′-chloro-1,1′-biphenyl-2-yl)methyl]piperazin-1-yl}benzamide] | 372 nM
O=C(NS(=O)(=O)c1ccc(/C=C/c2ncon2)s1)c1ccc(N2CCN(Cc3ccccc3-c3ccc(Cl)cc3)CC2)cc1 [Example 26, 4-{4-[(4′-chloro-1,1′-biphenyl-2-yl)methyl]piperazin-1-yl}-N-({5-[(E)-2-(1,2,4-oxadiazol-3-yl)vinyl]thien-2-yl}sulfonyl)benzamide] | 393 nM
Cc1nn(CCCl)c(C)c1S(=O)(=O)NC(=O)c1ccc(N2CCN(Cc3ccccc3-c3ccc(Cl)cc3)CC2)cc1 [Example 27, 4-{4-[(4′-chloro-1,1′-biphenyl-2-yl)methyl]piperazin-1-yl}-N-{[1-(2-chloroethyl)-3,5-dimethyl-1H-pyrazol-4-yl]sulfonyl}benzamide] | 434 nM
